Earlier results on 1 compound are cited in US20070059297A1, “Methods and compositions for improving visual acuity” (Nestec, S.A., priority 2005, published 2007).

The subject of this data set is rat retina neuronal cells. Particulars: in vitro incubation.

With `CC/C=C\C/C=C\C/C=C\C/C=C\C/C=C\C/C=C\CCC(=O)O` [DHA, docosahexaenoic acid], the “DHA content of cells incubated with DHA versus cells incubated with other fatty acids” value is recorded as “four- to six-fold more DHA”.
